Reference: patent US20120165319A1, “INHIBITORS OF INTERLEUKIN-1 BETA CONVERTING ENZYME” (VERTEX PHARMACEUTICALS INCORPORATED, priority 1995, published 2012)

melting point	SMILES
121 to 127 °C	O=C1C[C@H](NC(=O)[C@@H]2CCCN3C(=O)CC[C@H](NC(=O)c4cccc5ccccc45)C(=O)N23)C(OCc2ccccc2)O1 (stereo partly drawn) [Compound 213v, [1S,9S(2RS,3S)]N-(2-Benzyloxy-5-oxotetrahydrofuran-3-yl)-6,10-dioxo-9-(naphth-1-oylamino)-1,2,3,4,7,8,9,10-octahydro-6H-pyridazino[1,2-a][1,2]diazepine-1-carboxamide]
167 to 180 °C	O=C(O)C[C@H](NC(=O)[C@@H]1CCCN2C(=O)CC[C@H](NC(=O)c3ccccc3)C(=O)N12)C(=O)c1nc2cc(Cl)cc(Cl)c2o1 [Compound 223e, [3S(1S,9S)]3-(9-Benzoylamino-6,10-dioxo-1,2,3,4,7,8,9,10-octahydro-6H-pyridazino-[1,2-a][1,2]diazepine-1-carboxamido)-4-(5,7-dichlorobenzoxazol-2-yl)-4-oxobutanoic acid]
95 to 100 °C	O=C(O)C[C@H](NC(=O)[C@@H]1CCCN2C(=O)CC[C@H](NC(=O)c3ccccc3)C(=O)N12)C(=O)CSCc1ccccc1Cl [Compound 226e, [3S(1S,9S)]3-(9-Benzoylamino-6,10-dioxo-1,2,3,4,7,8,9,10-octahydro-6H-pyridazino[1,2-a][1,2]-diazepine-1-carboxamido)-5-(2-chlorophenyl)methylthio-4-oxopentanoic acid]
105 °C (dec.)	COC(=O)N[C@H]1CCC(=O)N2CCC[C@@H](C(=O)N[C@@H](CC(=O)O)C(=O)CSc3ncccn3)N2C1=O [Compound 511c, [3S(1S,9S)]3-[6,10-Dioxo-9-(methoxycarbonyl)-amino-1,2,3,4,7,8,9,10-octahydro-6H-pyridazino[1,2-a][1,2]diazepine-1-carboxamido]-5-(2-mercaptopyrimidine)-4-oxopentanoic acid]

The next lines start with the compound.

SMILES	melting point
O=C1C[C@H](NC(=O)[C@@H]2CCCN3C(=O)CC[C@H](NC(=O)c4ccccc4)C(=O)N23)C(OCc2ccccc2)O1 (single isomer, unassigned) [Compound 2100n]	112 to 115 °C
O=C[C@H](CC(=O)O)NC(=O)[C@@H]1CCCN2CCC[C@H](NC(=O)c3ccccc3)C(=O)N12 [Compound 246]	110 to 115 °C
Cc1ccccc1C(=O)N[C@H]1CCC(=O)N2CCC[C@@H](C(=O)N[C@H](C=O)CC(=O)O)N2C1=O [Compound 404]	156 to 159 °C
O=C[C@H](CC(=O)O)NC(=O)[C@@H]1CCCN2C(=O)CC[C@H](NC(=O)c3cccc4ccccc34)C(=O)N12 [Compound 408, [3S(1S,9S)]3-[6,10-Dioxo-9-(naphth-1-oylamino)-1,2,3,4,7,8,9,10-octahydro-6H-pyridazino[1,2-a][1,2]diazepine-1-carboxamido]-4-oxobutanoic acid]	157 to 165 °C
O=C[C@H](CC(=O)O)NC(=O)[C@@H]1CCCN2C(=O)CC[C@H](NC(=O)c3ccc4c(c3)OCO4)C(=O)N12 [Compound 415, [3S(1S,9S)]3-[6,10-Dioxo-9-(3,4-methylenedioxybenzoylamino)-1,2,3,4,7,8,9,10-octahydro-6H-pyridazino[1,2-a][1,2]diazepine-1-carboxamido]-4-oxobutanoic acid]	158 to 162 °C
COc1cc(C(=O)N[C@H]2CCC(=O)N3CCC[C@@H](C(=O)N[C@H](C=O)CC(=O)O)N3C2=O)cc(OC)c1OC [Compound 417, [3S(1S,9S)]3-[6,10-Dioxo-1,2,3,4,7,8,9,10-octahydro-9-(3,4,5-trimethoxybenzoylamino)-6H-pyridazino[1,2-a][1,2]diazepine-1-carboxamido]-4-oxobutanoic acid]	145 to 155 °C
CC(=O)Nc1cccc(C(=O)N[C@H]2CCC(=O)N3CCC[C@@H](C(=O)N[C@H](C=O)CC(=O)O)N3C2=O)c1 [Compound 450, [3S(1S,9S)]3-{9-[(3-Acetamido)benzamido]-6,10-dioxo-1,2,3,4,7,8,9,10-octahydro-6H-pyridazino[1,2-a][1,2]diazepine-1-carboxamido}-4-oxobutanoic acid]	175 to 179 °C
O=C[C@H](CC(=O)O)NC(=O)[C@@H]1CCCN2C(=O)CC[C@H](NC(=O)c3cc4ccccc4[nH]3)C(=O)N12 [Compound 475, [3S(1S,9S)]3-[6,10-Dioxo-9-(indol-2-oylamino)-1,2,3,4,7,8,9,10-octahydro-6H-pyridazino[1,2-a][1,2]diazepine-1-carboxamido]-4-oxobutanoic acid]	150 °C
O=C[C@H](CC(=O)O)NC(=O)[C@@H]1CCCN2C(=O)CC[C@H](NC(=O)c3ccc(NC(=O)Cc4ccccc4)cc3)C(=O)N12 [Compound 486, [3S(1S,9S)]3-{6,10-Dioxo-1,2,3,4,7,8,9,10-octahydro-9-[4-(phenylacetamido)benzamido]-6H-pyridazino[1,2-a][1,2]diazepine-1-carboxamido}-4-oxobutanoic acid]	165 to 169 °C
CC(C)CC(=O)Nc1ccc(C(=O)N[C@H]2CCC(=O)N3CCC[C@@H](C(=O)N[C@H](C=O)CC(=O)O)N3C2=O)cc1 [Compound 487, [3S(1S,9S)]3-{6,10-Dioxo-9-[4-(3-methylbutan-1-oylamino)benzamido]-1,2,3,4,7,8,9,10-octahydro-6H-pyridazino[1,2-a][1,2]diazepine-1-carboxamido}-4-oxobutanoic acid]	176 to 180 °C
O=C[C@H](CC(=O)O)NC(=O)[C@@H]1CCCN2C(=O)CCN(NC(=O)c3ccc4c(c3)OCO4)C(=O)N12 [Compound 1015, [3S(4S)]3-[6,10-Dioxo-7-(3,4-methylenedioxybenzoylamino)-1,2,3,4,7,8,9,10-octahydro-6H-pyridazino[1,2-a][1,2,4]triazepine-4-carboxamido]-4-oxobutanoic acid]	170 to 175 °C
CC(=O)Nc1ccc(C(=O)NN2CCC(=O)N3CCC[C@@H](C(=O)N[C@H](C=O)CC(=O)O)N3C2=O)cc1 [Compound 1018, [3S(4S)]3-{7-[(4-Acetamido)benzamido]-6,10-Dioxo-1,2,3,4,7,8,9,10-octahydro-6H-pyridazino[1,2-a][1,2,4]-triazepine-4-carboxamido}-4-oxobutanoic acid]	235 to 240 °C
O=C[C@H](CC(=O)O)NC(=O)[C@@H]1CCCN2C(=O)CCN(NC(=O)c3cc4ccccc4[nH]3)C(=O)N12 [Compound 1075, [3S(4S)]3-[6,10-Dioxo-7-(indole-2-carboxamido)-1,2,3,4,7,8,9,10-octahydro-6H-pyridazino[1,2-a][1,2,4]triazepine-4-carboxamido]-4-oxobutanoic acid]	210 to 215 °C
O=C1C[C@H](NC(=O)[C@@H]2CCCN3C(=O)CC[C@H](NC(=O)c4ccccc4)C(=O)N23)[C@H](OCc2ccccc2)O1 [Compound 2100o, [1S,9S(2R,3S)]9-Benzoylamino-N-(2-benzyloxy-5-oxotetrahydrofuran-3-yl)-6,10-dioxo-1,2,3,4,7,8,9,10-octahydro-6H-pyridazino[1,2-a][1,2]diazepine-1-carboxamide]	115 to 117 °C
